# Experiments:
# [1] = tested on: human lung fibroblasts (IMR-90; fibroblasts of normal or UIP patients); test: TGF-β-treated lung fibroblast proliferation and myofibroblast differentiation; format: cell-based; details: pretreatment 0.1 to 1 μM, then TGF-β 24 h
# Experimental: IMR-90 cells were cultured in Dulbecco's modified Eagle's medium (DMEM) containing 10% heat-inactivated fetal bovine serum, penicillin, and streptomycin (100 IU/ml). Monolayer cultures were deprived of serum for 24 h, and treated with different concentrations of PB141 for different time periods as indicated. Cell numbers were then counted at 24, 48, and 72 h. Data are representative of one of two independent experiments; n=3.
# IMR-90 cells were cultured in Dulbecco's modified Eagle's medium (DMEM) containing 10% heat-inactivated fetal bovine serum, penicillin, and streptomycin (100 IU/ml). Monolayer cultures were deprived of serum for 24 h, pre-treated with 0.5 μM PB141 or with vehicle (saline) for 1 h, and then exposed to 2 ng/ml TGF-β for 24 h. (A) Western blot analysis for α-smooth muscle actin. (B) Quantitative values for each condition. ***P<0.001 vs Veh. (C) Immunofluorescence microscopy for α-SMA following treatment. Blots and images are representative of two independent experiments.
# Additional in vitro experiments were performed using normal human fetal lung fibroblasts (IMR-90; Institute for Medical Research, Camden, N.J.) or fibroblasts grown from mechanically dissociated surgical lung biopsy of histologically normal or usual interstitial pneumonia (UIP) patients. […]
# [2] = tested on: chronic hypoxia-induced pulmonary hypertension in mice; test: Chronic hypoxia-induced pulmonary hypertension model; format: in vivo; details: 25 mg/kg nebulized during last 10 days of 3 weeks hypoxia
# Experimental: CH-induced pulmonary hypertension was produced in mice by exposing them to chronic hypoxia (CH; FIO2 10%) or room air (N; control) for 3 weeks. During the last 10 days of exposure, PB141 (25 mg/kg) or vehicle (saline) was nebulized and delivered to cage air via a micropump nebulizer. Twenty-four hours following the last nebulization mice were anesthetized and the right internal jugular vein of each mouse was surgically exposed and cannulated with a pressure transducer that was advanced to record right ventricular pressure, then advanced further to measure pulmonary arterial pressure: (top left) mean pulmonary arterial pressure; (top right) right ventricular systolic pressure (RVSP); (bottom left) […]; (bottom right) right ventricular hypertrophy. Data are representative of one of two independent experiments with n=4-6 mice per group.
# CH-induced pulmonary hypertension was produced in mice by exposing them to CH (FIO2 10%) or room air for 3 weeks. During the last 10 days of exposure, PB141 (25 mg/kg) or vehicle (saline) was nebulized and delivered to cage air via a micropump nebulizer. Twenty-four hours following the last nebulization lung samples were obtained. Graphs show medial wall thickness of a-SMA-positive acinar blood vessels and percent of non-muscularized, partially muscularized, and fully muscularized small vessels. Data are representative of one of two independent experiments with n=4-6 mice per group.
# Pulmonary hypertension was induced in mice by exposing them to chronic hypoxia (FiO2 10%) for 3 weeks. Control mice breathed room air during the last 10 days of exposure, PB141 (25 mg/kg) or vehicle (saline) was nebulized into the cage air for 30 min via a nebulizer.
# Twenty-four hours following the last PB141 administration, mice were anesthetized, and the right internal jugular vein of each mouse was surgically exposed and cannulated with a pressure transducer that was advanced to record right ventricular systolic pressure (RVSP), which is elevated in pulmonary hypertension. […] The heart was then excised and the right ventricle was separated from the left ventricle (including the septum). Each ventricle was weighted separately.
# Twenty-four hours following the last PB141 administration, lung samples were obtained. Immunostaining for α-SMA, a key marker in pulmonary hypertension, was performed in paraffin sections of lung and the sections were examined microscopically. […] All these measures of vascular wall remodeling in small pulmonary vessels, the pathophysiology underlying pulmonary hypertension, were reduced by PB141 treatment (FIG. 20).
# [3] = tested on: human lung adenocarcinoma cell lines (NCI-H661, NCI-H441 and NCIH1299); test: Proliferation (BrdU) and apoptosis (TUNEL) of NNK-treated lung adenocarcinoma cells; format: cell-based; details: pretreated 1 to 5 μM, then 1 μM NNK; data not shown
# Experimental: For further in vitro studies, human lung adenocarcinoma cell lines (NCI-H661, NCI-H441 and NCIH1299) were obtained from American Type Culture Collection. Cells were treated with 1 μM NNK for 1 hr. In some experiments cells were pretreated with 1 to 5 μM PB141 before treatment with NNK. Cell proliferation was assessed by BrdU proliferation kit (Roche Applied Science). Apoptosis was assessed by TUNEL assay.
# [4] = tested on: cigarette smoke-induced COPD in mice; test: Cigarette smoke-induced COPD model; format: in vivo
# Experimental: COPD was induced by exposure of mice to whole-body cigarette smoke for 5 days, at the end of which the mice were euthanized and cells and levels of mediators were obtained from the pulmonary airspace by bronchoalveolar lavage. Some mice received PB141 (25 mg/kg) simultaneously with the cigarette smoke (A-I).
# Mice were exposed 5 days per week for 4 wk (sub-acute exposure) to the smoke of five cigarettes (Reference Cigarette 2R4F without filter; University of Kentucky) administered four times per day with a 30-min smoke-free interval between exposures. An optimal smoke:air ratio of 1:6 was obtained. In preventive studies, tobacco smoke exposure was paralleled by delivery of a nebulized solution containing PB141 (25 mg/kg) or vehicle (saline) via a micropump nebulizer (Buxco Research Systems, Wilmington, N.C.). At the conclusion of smoke exposure the extent of lung inflammation was assessed by counting polymorphonuclear neutrophils (PMNs) in bronchoalveolar lavage fluid and measuring lung vascular permeability, edema, pulmonary lymphoid aggregation, and generation of inflammatory chemokines and cytokines. Emphysema was assessed by destruction of alveolar walls, quantitated as the destructive index (DI), and by enlargement of alveolar spaces, quantitated by the mean linear intercept (Lm). Airway remodeling was assessed by staining collagen in the airway wall and by measuring the amount of fibronectin. Lung histology sections were assessed for inflammation and injury following hematoxylin and eosin (H&E) staining. Lymphoid aggregates were quantification by morphometric analysis.
# [5] = 25 mg/kg nebulized in parallel with smoke exposure
structure (smiles),measurement,setting,value
CC(=O)N[C@@H](CSC(CC(=O)CC(SC[C@H](NC(C)=O)C(=O)O)c1cnccn1)c1cnccn1)C(=O)O (stereo partly shown) [PB141],Proliferation of human lung fibroblasts,[1],inhibited
same,Differentiation to myofibroblasts (α-SMA),[1]; including UIP patient fibroblasts,inhibited
same,Increase in ratio of right ventricular weight to left ventricle plus septum,[2],significantly reduced
same,Increase in right ventricular systolic pressure (RVSP),[2],significantly smaller
same,"Measures of vascular wall remodeling (α-SMA-positive vessels, muscularization, median wall thickness)",[2],reduced
same,Pulmonary arterial pressure,[2],significantly smaller
same,Pulmonary vascular resistance,[2],significantly smaller
same,Apoptosis (TUNEL),[3],induced apoptosis
same,Cell proliferation (BrdU),[3],significantly decreased
same,Airway wall remodeling,[4]; [5],significantly decreased
same,Cigarette smoke-induced increase of inflammatory cells in the lungs,[4]; [5],significantly decreased
same,Development of pulmonary hypertension,[4]; [5],significantly decreased
same,Emphysema,[4]; [5],significantly decreased
same,Generation of inflammatory chemokines and cytokines,[4]; [5],significantly decreased
same,Pulmonary lymphoid aggregates,[4]; [5],significantly decreased
same,Phagocytic ability of alveolar macrophages,[4]; administration by nebulization,improved
